System: T98
Assay: Ames testing
Assay type: cell-based
Conditions: T98 with S9 activation
Description: A60.7 (370 mg) was dissolved in trifluoroacetic acid and stirred at 50° C. for 2h and 45 min. then at 60° C. for 2 h, then overnight at room temperature. The solvent was removed under reduced pressure and co-evaporated with diethyl ether (2×). Ether (˜20 mL) was added and the mixture sonicated for 1 min. The crude product was collected by filtration and rinsed with an additional portion of ether and dried under vacuum to yield 130 mg of a pale yellow solid. The crude product was washed with several portions of saturated aqueous sodium bicarbonate then water and dried under vacuum. The crude product was purified by automated reverse phase HPLC. The appropriate fractions were combined and azeotroped with heptane to produce 43 mg of a pale yellow solid. The solid was treated with a few milliliters of saturated aqueous sodium bicarbonate solution rinsed with water and dried under vacuum over phosphorus pentoxide and subsequently rinsed with several portions of diethyl ether and dried to yield 36 mg of the desired product. (Caution: This material was subjected to Ames testing and found to be positive in T98 with S9 activation. Suitable precautions should be taken in handling this material) 1H NMR 400 MHz d^6DMSO δ: 8.26 s, 1H, 8.14-8.07 m, 2H, 7.62-7.53, m, 3H, 6.90-6.80, br s, 2H, 4.02, s, 3H.

`Cn1cnc2c(N)nc3nc(-c4ccccc4)sc3c21` [Example A60, 8-methyl-2-phenyl-8H-imidazo[4,5-d]thiazolo[4,5-b]pyridin-5-amine] was tested, and the Ames testing was “positive”.

Source: US7557211B2, “8H-imidazo[4,5-D]thiazolo[4,5-B]pyridine based tricyclic compounds and pharmaceutical compositions comprising same” (Bristol-Myers Squibb Company, priority 2004, dated 2009)
